Laboratory results published in patent US20220323406A1, “METHODS AND COMPOSITIONS FOR DIFFERENTIATING STEM CELLS” (Massachusetts Institute of Technology, priority 2019, published 2022).
Counter-ions that a name gives are not always drawn.

Experiments:
[1] = system: ENR+CD organoids (ISC to Paneth cell differentiation); assay: Primary screen: basal (non-stimulated) lysozyme secretion LYZ.NS, 2.5-D 384-well ENR+CD organoid differentiation; format: cell-based, mouse; settings: primary screen; for Dose.FC.LYZ.NS: FC relative to plate median; for Z.LYZ.NS: standard z score
Excerpt: (§1) High-throughput screening.

[2] = system: ENR+CD organoids (ISC to Paneth cell differentiation); assay: Primary screen: CCh-stimulated lysozyme secretion LYZ.S, 2.5-D 384-well ENR+CD organoid differentiation; format: cell-based, mouse; settings: primary screen; for Dose.FC.LYZ.S: FC relative to plate median
Excerpt: as §1

ENR+CD organoids = assay: Primary screen: ATP (CellTiter-Glo 3D, CTG) cell number/viability, 2.5-D 384-well ENR+CD organoids; settings: primary screen; for Dose.FC.CTG: FC relative to plate median; for Z.CTG: standard z score;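 for all read-outs here: compounds given at plating and again on day 3 over a 6-day differentiation from ENR+CV stem-cell-enriched precursors, ATP measured on day 6, plate median as control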

| Compound | Dose.FC.LYZ.NS ([1]; dose 0.08 uM) | Z.LYZ.NS ([1]; dose 0.08 uM) | Dose.FC.LYZ.NS ([1]; dose 0.40 uM) | Z.LYZ.NS ([1]; dose 0.40 uM) | Dose.FC.LYZ.NS ([1]; dose 2.00 uM) | Z.LYZ.NS ([1]; dose 2.00 uM) | Dose.FC.LYZ.NS ([1]; dose 10.00 uM) | Z.LYZ.NS ([1]; dose 10.00 uM) | Dose.FC.LYZ.S ([2]; dose 0.08 uM) | Dose.FC.LYZ.S ([2]; dose 0.40 uM) | Dose.FC.LYZ.S ([2]; dose 2.00 uM) | Dose.FC.LYZ.S ([2]; dose 10.00 uM) | Dose.FC.CTG (ENR+CD organoids; dose 0.08 uM) | Z.CTG (ENR+CD organoids; dose 0.08 uM) | Dose.FC.CTG (ENR+CD organoids; dose 0.40 uM) | Z.CTG (ENR+CD organoids; dose 0.40 uM) | Dose.FC.CTG (ENR+CD organoids; dose 2.00 uM) | Z.CTG (ENR+CD organoids; dose 2.00 uM) | Dose.FC.CTG (ENR+CD organoids; dose 10.00 uM) | Z.CTG (ENR+CD organoids; dose 10.00 uM) | other results |
| --- | --- | --- | --- | --- | --- | --- | --- | --- | --- | --- | --- | --- | --- | --- | --- | --- | --- | --- | --- | --- | --- |
| Cc1noc(-c2ccc(CSCCC(=O)O)cc2)c1NC(=O)OC(C)c1ccccc1Cl (stereo not shown) [Ki16425] |  |  |  |  |  |  |  |  |  |  |  |  |  |  |  |  |  |  |  |  | Dose.FC.LYZ.NS (log2 fold change) ([1]; dose 0.08 uM): 0.001; Z.LYZ.NS (standard z score) ([1]; dose 0.08 uM): 0.005; Dose.FC.LYZ.NS (log2 fold change) ([1]; dose 0.40 uM): 0.117; Z.LYZ.NS (standard z score) ([1]; dose 0.40 uM): 1.017; Dose.FC.LYZ.NS (log2 fold change) ([1]; dose 2.00 uM): −0.008; Z.LYZ.NS (standard z score) ([1]; dose 2.00 uM): −0.069; Dose.FC.LYZ.NS (log2 fold change) ([1]; dose 10.00 uM): −0.038; Z.LYZ.NS (standard z score) ([1]; dose 10.00 uM): −0.327; Dose.FC.LYZ.S (log2 fold change) ([2]; dose 0.08 uM): 0.022; Dose.FC.LYZ.S (log2 fold change) ([2]; dose 0.40 uM): 0.114; Dose.FC.LYZ.S (log2 fold change) ([2]; dose 2.00 uM): −0.021; Dose.FC.LYZ.S (log2 fold change) ([2]; dose 10.00 uM): −0.071; Dose.FC.CTG (log2 fold change) (ENR+CD organoids; dose 0.08 uM): −0.051; Z.CTG (standard z score) (ENR+CD organoids; dose 0.08 uM): −0.121; Dose.FC.CTG (log2 fold change) (ENR+CD organoids; dose 0.40 uM): −0.002; Z.CTG (standard z score) (ENR+CD organoids; dose 0.40 uM): −0.005; Dose.FC.CTG (log2 fold change) (ENR+CD organoids; dose 2.00 uM): −0.078; Z.CTG (standard z score) (ENR+CD organoids; dose 2.00 uM): −0.185; Dose.FC.CTG (log2 fold change) (ENR+CD organoids; dose 10.00 uM): −0.165; Z.CTG (standard z score) (ENR+CD organoids; dose 10.00 uM): −0.394 |
| CC(C)(C)c1cc(NC(=O)Nc2ccc(-c3cn4c(n3)sc3cc(OCCN5CCOCC5)ccc34)cc2)no1 [Quizartinib (AC220)] | 0.096 log2 fold change | 0.836 | 0.039 log2 fold change | 0.341 | −0.052 log2 fold change | −0.452 | −0.173 log2 fold change | −1.505 | 0.154 log2 fold change | 0.083 log2 fold change | −0.077 log2 fold change | −0.200 log2 fold change | 0.351 log2 fold change | 0.838 | 0.149 log2 fold change | 0.355 | −0.352 log2 fold change | −0.841 | −0.644 log2 fold change | −1.539 |  |
| Cc1nnc(C(=O)NC(C)(C)c2nc(C(=O)NCc3ccc(F)cc3)c(O)c(=O)n2C)o1 [Raltegravir (MK-0518)] | 0.187 log2 fold change | 1.627 | 0.035 log2 fold change | 0.302 | 0.029 log2 fold change | 0.254 | 0.042 log2 fold change | 0.366 | 0.137 log2 fold change | 0.037 log2 fold change | 0.122 log2 fold change | 0.183 log2 fold change | 0.108 log2 fold change | 0.258 | 0.094 log2 fold change | 0.224 | 0.197 log2 fold change | 0.471 | 0.170 log2 fold change | 0.407 |  |
| CC(=O)OCC(=O)NCCCOc1cccc(CN2CCCCC2)c1 [Roxatidine Acetate HCl] | 0.149 log2 fold change | 1.295 | −0.029 log2 fold change | −0.256 | −0.001 log2 fold change | −0.009 | −0.061 log2 fold change | −0.534 | 0.035 log2 fold change | 0.099 log2 fold change | −0.053 log2 fold change | −0.104 log2 fold change | −0.040 log2 fold change |  | 0.021 log2 fold change |  | −0.103 log2 fold change |  | −0.236 log2 fold change |  |  |
